Source: patent US10189816B2, “Substituted pyridines as inhibitors of human immunodeficiency virus replication” (priority 2015, dated 2019)
Where two headings read alike, the source gives them in different places.

Test system: NL-RLuc virus
Assay: Inhibition of HIV replication (NL-RLuc reporter virus in MT-2 cells, luciferase readout)
Type: cell-based
Settings: Human immunodeficiency virus 1, MT2, 120 h
Description: Inhibition of HIV replication: A recombinant NL-RLuc proviral clone was constructed in which a section of the nef gene from NL4-3 was replaced with the Renilla Luciferase gene. This virus is fully infectious and can undergo multiple cycles of replication in cell culture. In addition, the luciferous reporter provides a simple and easy method for quantitating the extent of virus growth and consequently, the antiviral activity of test compounds. The plasmid pNLRLuc contains the proviral NL-Rluc DNA cloned into pUC18 at the PvuII site. The NL-RLuc virus was prepared by transfection of 293T cells with the plasmid pNLRLuc. Transfections were performed using the LipofectAMINE PLUS kit from Invitrogen (Carlsbad, Calif.) according to the manufacturer and the virus generated was titered in MT-2 cells. For susceptibility analyses, the titrated virus was used to infect MT-2 cells in the presence of compound, and after 5 days of incubation, cells were processed and quantitated for virus growth by the amount of expressed luciferase. Assay media was RPMI 1640 supplemented with 10% heat inactivated fetal bovine serum (FBS), 100 units/ml penicillin G/100 units/ml streptomycin, 10 mM HEPES buffer pH 7.55 and 2 mM L-glutamine. The results from at least 2 experiments were used to calculate the EC50 values. Luciferase was quantitated using the Dual Luciferase kit from Promega (Madison, Wis.). Susceptibility of viruses to compounds was determined by incubation in the presence of serial dilutions of the compound. The 50% effective concentration (EC50) was calculated by using the exponential form of the median effect equation where (Fa)=1/[1+(ED50/drug conc.)^m] (Johnson V A, Byington R T. Infectivity Assay. In Techniques in HIV Research. ed. Aldovini A, Walker B D. 71-76. New York: Stockton Press.1990). Activity equal to A refers to a compound having an EC50≤100 nM, while B and C denote compounds having an EC50 between 100 nM and 1 uM (B) or >1 uM (C).

Row | SMILES | EC50 (read-out: Activity) [µM] | EC50 (read-out: EC50 μM) [µM]
1 | Cc1nc(C)c([C@H](OC(C)(C)C)C(=O)O)c(N2CCC(C)(C)CC2)c1-c1ccc2c(c1)CCN(Cc1ccc(F)cc1)C2 [Compound 1, (S)-2-(tert-butoxy)-2-(4-(4,4-dimethylpiperidin-1-yl)-5-(2-(4-fluorobenzyl)-1,2,3,4-tetrahydroisoquinolin-6-yl)-2,6-dimethylpyridin-3-yl)acetic acid] | < 0.1 | 0.006
2 | Cc1nc(C)c([C@H](OC(C)(C)C)C(=O)O)c(N2CCC(C)(C)CC2)c1-c1ccc2c(c1)CCN(Cc1cccc(C(F)(F)F)c1)C2 [Compound 2, (S)-2-(tert-butoxy)-2-(4-(4,4-dimethylpiperidin-1-yl)-2,6-dimethyl-5-(2-(3-(trifluoromethyl)benzyl)-1,2,3,4-tetrahydroisoquinolin-6-yl)pyridin-3-yl)acetic acid] | < 0.1 | –
3 | Cc1cccc(CN2CCc3cc(-c4c(C)nc(C)c([C@H](OC(C)(C)C)C(=O)O)c4N4CCC(C)(C)CC4)ccc3C2)c1 [Compound 3, (S)-2-(tert-butoxy)-2-(4-(4,4-dimethylpiperidin-1-yl)-2,6-dimethyl-5-(2-(3-methylbenzyl)-1,2,3,4-tetrahydroisoquinolin-6-yl)pyridin-3-yl)acetic acid] | < 0.1 | –
4 | Cc1ccccc1CN1CCc2cc(-c3c(C)nc(C)c([C@H](OC(C)(C)C)C(=O)O)c3N3CCC(C)(C)CC3)ccc2C1 [Compound 4, (S)-2-(tert-butoxy)-2-(4-(4,4-dimethylpiperidin-1-yl)-2,6-dimethyl-5-(2-(2-methylbenzyl)-1,2,3,4-tetrahydroisoquinolin-6-yl)pyridin-3-yl)acetic acid] | < 0.1 | –
5 | Cc1ccc(CN2CCc3cc(-c4c(C)nc(C)c([C@H](OC(C)(C)C)C(=O)O)c4N4CCC(C)(C)CC4)ccc3C2)cc1 [Compound 5, (S)-2-(tert-butoxy)-2-(4-(4,4-dimethylpiperidin-1-yl)-2,6-dimethyl-5-(2-(4-methylbenzyl)-1,2,3,4-tetrahydroisoquinolin-6-yl)pyridin-3-yl)acetic acid] | < 0.1 | –
6 | COc1cccc(CN2CCc3cc(-c4c(C)nc(C)c([C@H](OC(C)(C)C)C(=O)O)c4N4CCC(C)(C)CC4)ccc3C2)c1 [Compound 6, (S)-2-(tert-butoxy)-2-(4-(4,4-dimethylpiperidin-1-yl)-5-(2-(3-methoxybenzyl)-1,2,3,4-tetrahydroisoquinolin-6-yl)-2,6-dimethylpyridin-3-yl)acetic acid] | < 0.1 | –
7 | Cc1nc(C)c([C@H](OC(C)(C)C)C(=O)O)c(N2CCC(C)(C)CC2)c1-c1ccc2c(c1)CCN(Cc1cccc(F)c1)C2 [Compound 7, (S)-2-(tert-butoxy)-2-(4-(4,4-dimethylpiperidin-1-yl)-5-(2-(3-fluorobenzyl)-1,2,3,4-tetrahydroisoquinolin-6-yl)-2,6-dimethylpyridin-3-yl)acetic acid] | < 0.1 | 0.004
8 | Cc1nc(C)c([C@H](OC(C)(C)C)C(=O)O)c(N2CCC(C)(C)CC2)c1-c1ccc2c(c1)CCN(Cc1ccc(C(F)(F)F)cc1)C2 [Compound 8, (S)-2-(tert-butoxy)-2-(4-(4,4-dimethylpiperidin-1-yl)-2,6-dimethyl-5-(2-(4-(trifluoromethyl)benzyl)-1,2,3,4-tetrahydroisoquinolin-6-yl)pyridin-3-yl)acetic acid] | < 0.1 | –
9 | Cc1nc(C)c([C@H](OC(C)(C)C)C(=O)O)c(N2CCC(C)(C)CC2)c1-c1ccc2c(c1)CCN(Cc1ccccc1F)C2 [Compound 9, (S)-2-(tert-butoxy)-2-(4-(4,4-dimethylpiperidin-1-yl)-5-(2-(2-fluorobenzyl)-1,2,3,4-tetrahydroisoquinolin-6-yl)-2,6-dimethylpyridin-3-yl)acetic acid] | < 0.1 | –
10 | Cc1nc(C)c([C@H](OC(C)(C)C)C(=O)O)c(N2CCC(C)(C)CC2)c1-c1ccc2c(c1)CCN(Cc1cccc(C(=O)O)c1)C2 [Compound 10, (S)-3-((6-(5-(tert-butoxy(carboxy)methyl)-4-(4,4-dimethylpiperidin-1-yl)-2,6-dimethylpyridin-3-yl)-3,4-dihydroisoquinolin-2(1H)-yl)methyl)benzoic acid] | > 1 | 1.48
11 | Cc1nc(C)c([C@H](OC(C)(C)C)C(=O)O)c(N2CCC(C)(C)CC2)c1-c1ccc2c(c1)CCN(Cc1cccc(-c3ccccc3)c1)C2 [Compound 11, (S)-2-(5-(2-([1,1′-biphenyl]-3-ylmethyl)-1,2,3,4-tetrahydroisoquinolin-6-yl)-4-(4,4-dimethylpiperidin-1-yl)-2,6-dimethylpyridin-3-yl)-2-(tert-butoxy)acetic acid] | < 0.1 | –
12 | Cc1nc(C)c([C@H](OC(C)(C)C)C(=O)O)c(N2CCC(C)(C)CC2)c1-c1ccc2c(c1)CCN(Cc1ccccc1C(F)(F)F)C2 [Compound 12, (S)-2-(tert-butoxy)-2-(4-(4,4-dimethylpiperidin-1-yl)-2,6-dimethyl-5-(2-(2-(trifluoromethyl)benzyl)-1,2,3,4-tetrahydroisoquinolin-6-yl)pyridin-3-yl)acetic acid] | < 0.1 | –
13 | Cc1nc(C)c([C@H](OC(C)(C)C)C(=O)O)c(N2CCC(C)(C)CC2)c1-c1ccc2c(c1)CCN(C(C)c1ccccc1)C2 (stereo partly drawn) [Compound 13, (2S)-2-(tert-butoxy)-2-(4-(4,4-dimethylpiperidin-1-yl)-2,6-dimethyl-5-(2-(1-phenylethyl)-1,2,3,4-tetrahydroisoquinolin-6-yl)pyridin-3-yl)acetic acid] | < 0.1 | –
14 | Cc1nc(C)c([C@H](OC(C)(C)C)C(=O)O)c(N2CCC(C)(C)CC2)c1-c1ccc2c(c1)CCN(Cc1ccc(-c3ccccc3)cc1)C2 [Compound 14, (S)-2-(5-(2-([1,1′-biphenyl]-4-ylmethyl)-1,2,3,4-tetrahydroisoquinolin-6-yl)-4-(4,4-dimethylpiperidin-1-yl)-2,6-dimethylpyridin-3-yl)-2-(tert-butoxy)acetic acid] | < 0.1 | 0.034
15 | Cc1nc(C)c([C@H](OC(C)(C)C)C(=O)O)c(N2CCC(C)(C)CC2)c1-c1ccc2c(c1)CCN(Cc1cccc(C(F)(F)F)c1C)C2 [Compound 15, (S)-2-(tert-butoxy)-2-(4-(4,4-dimethylpiperidin-1-yl)-2,6-dimethyl-5-(2-(2-methyl-3-(trifluoromethyl)benzyl)-1,2,3,4-tetrahydroisoquinolin-6-yl)pyridin-3-yl)acetic acid] | < 0.1 | –
16 | Cc1ccc(CN2CCc3cc(-c4c(C)nc(C)c([C@H](OC(C)(C)C)C(=O)O)c4N4CCC(C)(C)CC4)ccc3C2)cc1C(F)(F)F [Compound 16, (S)-2-(tert-butoxy)-2-(4-(4,4-dimethylpiperidin-1-yl)-2,6-dimethyl-5-(2-(4-methyl-3-(trifluoromethyl)benzyl)-1,2,3,4-tetrahydroisoquinolin-6-yl)pyridin-3-yl)acetic acid] | < 0.1 | –
17 | Cc1ccc(CN2CCc3cc(-c4c(C)nc(C)c([C@H](OC(C)(C)C)C(=O)O)c4N4CCC(C)(C)CC4)ccc3C2)cc1F [Compound 18, (S)-2-(tert-butoxy)-2-(4-(4,4-dimethylpiperidin-1-yl)-5-(2-(3-fluoro-4-methylbenzyl)-1,2,3,4-tetrahydroisoquinolin-6-yl)-2,6-dimethylpyridin-3-yl)acetic acid] | < 0.1 | –
